{"source": "patent US20230181542A1", "about": "“METHOD AND PHARMACEUTICAL COMPOSITION FOR TREATING CHRONIC KIDNEY DISEASE” (Chengdu WenDing Technology Development Co., Ltd., priority 2020, published 2023)", "key": {"[1]": {"details": "marketed drug, known side effects; cited from earlier work"}, "[2]": {"tested_on": "rhesus monkeys with spontaneous chronic diabetic kidney disease", "experiment": "Proteinuria (UACR, urinary Malb and Cr-U), 4 to 6 hour urine collection", "format": "in vivo, Macaca mulatta (Rhesus Macaque)", "details": "for UACR: Valsartan group 2.67 mg/kg oral, individual animals and Mean ± SD (baseline 61 ± 33); for UACR change rate / UACR decreased by an average of (compared with the baseline) / Malb / Cr-U: Valsartan group; for UACR change rate: individual animals and Mean ± SD, negative = decrease; for Malb: individual animals and Mean ± SD (baseline 76.1 ± 114.7); for Cr-U: individual animals and Mean ± SD (baseline 90.9 ± 108.5)", "protocol": "The details of the dosing regime of each group are described below, wherein the route of administration was oral administration. The baseline period was 1 month, followed by continuous oral administration for 58 days. […] Urinary albumin excretion rate (UACR): 4 h to 6 hours urine was collected and detected for urinary microalbumin (Malb) and urinary creatinine (Cr-U), followed by calculation of UACR value. Detection was performed one time before administration, and at designated times (such as once at D30 and once at […]) after administration. UACR=Malb/Cr-U. Urine sample collection method: Animals were fasted overnight before the operation of collecting urine. On the day of operation, animals were transferred to a metabolic cage, followed by collecting all urine excreted within 4 to 6 hours into a urine collection bag. Detection method: see Tables 3-2 and 3-3 Effects on urinary albumin excretion rate (UACR) are shown in FIG. 1, FIG. 2 and Table 4-1. […]"}, "[3]": {"tested_on": "rhesus monkeys with spontaneous chronic diabetic kidney disease", "experiment": "Glomerular filtration rate eGFR calculated from Cr-P and CysC", "format": "in vivo, Macaca mulatta (Rhesus Macaque)", "details": "for eGFR change value: animals with eGFR 30 to 59, DOX+PMP+MTP groups 1# and 2# combined n = 5, Valsartan n = 3, Mean ± SD; for eGFR: Valsartan group, Mean ± SD (baseline 50 ± 7)", "protocol": "(§1) The details of the dosing regime of each group are described below, wherein the route of administration was oral administration. The baseline period was 1 month, followed by continuous oral administration for 58 days.\nGlomerular filtration rate eGFR: creatinine (Cr-P), blood urea nitrogen (BUN), cystatin (CysC) were detected to calculate the eGFR value. Detections were performed once in the baseline period before administration, and at designated times (such as D14, D28, D45, and D58, etc.) after administration. In accordance with reference literature (Levey A S, Stevens L A, Schmid C H et al. A new equation to estimate glomerular filtration rate. Ann Intern Med 2009; 150:604-612), the formula for calculating eGFR was as follows: […]\nBlood sample collection method: Before the blood collection operation, an animal was fasted overnight without anesthesia. After the animals were acclimatized, the backboard was gently squeezed to restrain the animal, and blood was collected through the forearm vein. After collection, sterilized dry cotton ball was used to gently press the blood collection site to stop bleeding.\nResults of eGFR are shown in FIG. 3, Table 4-2 and Table 4-3. eGFR values of 30 to 59 ml/min/1.73m^2 were selected and included to analyze the changes of glomerular filtration rate."}, "[4]": {"tested_on": "rhesus monkeys with spontaneous chronic diabetic kidney disease", "experiment": "Renal function markers CysC, Cr-P and BUN in blood", "format": "in vivo, Macaca mulatta (Rhesus Macaque)", "details": "Valsartan group; for CysC: Mean ± SD (baseline 1.57 ± 0.10)", "protocol": "The details of the dosing regime of each group are described below, wherein the route of administration was oral administration. The baseline period was 1 month, followed by continuous oral administration for 58 days. Glomerular filtration rate eGFR: creatinine (Cr-P), blood urea nitrogen (BUN), cystatin (CysC) were detected to calculate the eGFR value. Detections were performed once in the baseline period before administration, and at designated times (such as D14, D28, […], and […], etc.) after administration. In accordance with reference literature (Levey A S, Stevens L A, Schmid C H et al. A new equation to estimate glomerular filtration rate. Ann Intern Med 2009; 150:604-612), the formula for calculating eGFR was as follows: Blood sample collection method: Before the blood collection operation, an animal was fasted overnight without anesthesia. After the animals were acclimatized, the backboard was gently squeezed to restrain the animal, and blood was collected through the forearm vein. After collection, sterilized dry cotton ball was used to gently press the blood collection site to stop bleeding. [table] CysC is an endogenous marker that reflects changes in glomerular filtration rate. Cr-P has been used as the main index of renal function for more than 40 years. In this test, glomerular filtration rate eGFR is calculate by measuring CysC and Cr-P. Although BUN was first used as an evaluation index of renal function, it could not meet the requirements of endogenous GFR markers and was only used as an auxiliary index in this test."}, "[5]": {"tested_on": "rhesus monkeys with spontaneous chronic diabetic kidney disease", "experiment": "Blood pressure (SBP/DBP) after anesthesia", "format": "in vivo, Macaca mulatta (Rhesus Macaque)", "details": "Valsartan group", "protocol": "as §1\nBlood pressure: blood pressure was detected after anesthesia, including systolic blood pressure (SBP), diastolic blood pressure (DBP), mean blood pressure (MBP) and heart rate (HR). Detection was carried out 1 time before administration and 1 time at D58 (end of administration).\nDetection method: Animals were anesthetized by intramuscular injection of 15 mg/kg ketamine hydrochloride and then placed in a supine position, followed by being tied with a cuff of appropriate size according to the corresponding standard. A blood oxygen probe was clamped on a finger or toe (except the left hand) of the animal, with the red photosensitive surface on the side of the finger pad. The blood pressure of the animal was continuously detected 3 times in automatic mode with an interval of 1 minute. If the differences in the SBP, DBP and MBP of the three times were less than 15 mmHg, the measurement completed, otherwise the measurement repeated.\nDetection indicators: systolic blood pressure (SBP), diastolic blood pressure (DBP), mean blood pressure (MBP) and heart rate (HR).\nInstrument: GE B40i electrophysiological monitor."}}, "note": "Values joined by “and” are separate entries in the source; they are usually repeats but may differ in a detail not shown here. Identical values can stand only once."}
{"compound": "CCCN[C@H]1CCc2nc(N)sc2C1", "note": "[PMP, (S)-N6-propyl-4,5,6,7-tetrahydro-1,3-benzothiazole-2,6-diamine]", "values": [{"measurement": "daily dose at which the incidence of somnolence increases", "setting": "[1]", "result": "above 1.5 mg"}]}
{"compound": "CCCCC(=O)N(Cc1ccc(-c2ccccc2-c2nnn[nH]2)cc1)[C@H](C(=O)O)C(C)C", "note": "[Valsartan]", "values": [{"measurement": "UACR", "setting": "[2]; D 30", "result": "59 mg/g and 84 mg/g and 20 mg/g and 21 mg/g and 46 ± 31 mg/g"}, {"measurement": "UACR", "setting": "[2]; D 58", "result": "38 mg/g and 64 mg/g and 19 mg/g and 22 mg/g and 36 ± 20 mg/g"}, {"measurement": "UACR change rate", "setting": "[2]; Baseline-D 30", "result": "−27.11% and −14.25% and −33.78% and −42.53% and −29.41 ± 11.92%"}, {"measurement": "UACR change rate", "setting": "[2]; Baseline-D 58", "result": "−52.26% and −34.73% (2×) and −41.10% and −40.71 ± 8.27%"}, {"measurement": "UACR decreased by an average of (compared with the baseline)", "setting": "[2]; D30", "result": "about 30%"}, {"measurement": "Malb", "setting": "[2]; D 30", "result": "51.3 mg/L and 199.8 mg/L and 13.4 mg/L and 5.9 mg/L and 67.6 ± 90.3 mg/L"}, {"measurement": "Cr-U", "setting": "[2]; D 30", "result": "87.5 mg/dL and 238.1 mg/dL and 68.3 mg/dL and 27.5 mg/dL and 105.3 ± 92.0 mg/dL"}, {"measurement": "Malb", "setting": "[2]; D 58", "result": "54.9 mg/L and 206.7 mg/L and 39.9 mg/L and 6.2 mg/L and 76.9 ± 88.9 mg/L"}, {"measurement": "Cr-U", "setting": "[2]; D 58", "result": "143.0 mg/dL and 323.6 mg/dL and 206.3 mg/dL and 28.2 mg/dL and 175.3 ± 123.4 mg/dL"}, {"measurement": "UACR decreased by an average of (compared with the baseline)", "setting": "[2]; D58, p<0.01 vs placebo", "result": "40.71±8.27", "unit": "%"}, {"measurement": "eGFR change value", "setting": "[3]; D 14 minus baseline", "result": "3 ± 2", "unit": "ml/min/1.73 m^2"}, {"measurement": "eGFR change value", "setting": "[3]; D 28 minus baseline", "result": "6 ± 7", "unit": "ml/min/1.73 m^2"}, {"measurement": "eGFR change value", "setting": "[3]; D 45 minus baseline", "result": "5 ± 6", "unit": "ml/min/1.73 m^2"}, {"measurement": "eGFR change value", "setting": "[3]; D 58 minus baseline", "result": "10±7", "unit": "ml/min/1.73 m^2"}, {"measurement": "eGFR", "setting": "[3]; D 14", "result": "53 ± 7", "unit": "ml/min/1.73 m^2"}, {"measurement": "eGFR", "setting": "[3]; D 28", "result": "56 ± 2", "unit": "ml/min/1.73 m^2"}, {"measurement": "eGFR", "setting": "[3]; D 45", "result": "55 ± 1", "unit": "ml/min/1.73 m^2"}, {"measurement": "eGFR", "setting": "[3]; D 58", "result": "60 ± 1", "unit": "ml/min/1.73 m^2"}, {"measurement": "CR-P", "setting": "[4]; D 14 (baseline 1.46 ± 0.29)", "result": "1.26 ± 0.24", "unit": "mg/dL"}, {"measurement": "BUN", "setting": "[4]; D 14 (baseline 41.9 ± 34.2)", "result": "27.1 ± 6.0", "unit": "mg/dL"}, {"measurement": "CysC", "setting": "[4]; D 14", "result": "1.59 ± 0.10", "unit": "mg/L"}, {"measurement": "CR-P", "setting": "[4]; D 28 (baseline 1.46 ± 0.29)", "result": "1.18 ± 0.13", "unit": "mg/dL"}, {"measurement": "BUN", "setting": "[4]; D 28 (baseline 41.9 ± 34.2)", "result": "35.0 ± 16.6", "unit": "mg/dL"}, {"measurement": "CysC", "setting": "[4]; D 28", "result": "1.53 ± 0.08", "unit": "mg/L"}, {"measurement": "CR-P", "setting": "[4]; D 45 (baseline 1.46 ± 0.29)", "result": "1.18 ± 0.12", "unit": "mg/dL"}, {"measurement": "BUN", "setting": "[4]; D 45 (baseline 41.9 ± 34.2)", "result": "37.9 ± 19.2", "unit": "mg/dL"}, {"measurement": "CysC", "setting": "[4]; D 45", "result": "1.56 ± 0.09", "unit": "mg/L"}, {"measurement": "CR-P", "setting": "[4]; D 58 (baseline 1.46 ± 0.29)", "result": "1.10 ± 0.08", "unit": "mg/dL"}, {"measurement": "BUN", "setting": "[4]; D 58 (baseline 41.9 ± 34.2)", "result": "31.6 ± 11.3", "unit": "mg/dL"}, {"measurement": "CysC", "setting": "[4]; D 58", "result": "1.48 ± 0.11", "unit": "mg/L"}, {"measurement": "DBP", "setting": "[5]; D 58, Mean ± SD (baseline 71 ± 15)", "result": "63 ± 11", "unit": "mmHg"}, {"measurement": "SBP", "setting": "[5]; D 58, Mean ± SD (baseline 135 ± 16)", "result": "123 ± 12", "unit": "mmHg"}, {"measurement": "DBP decreased by an average of (compared with the baseline)", "setting": "[5]; D58, p<0.01 vs placebo", "result": "8±6", "unit": "mmHg"}, {"measurement": "SBP decreased by an average of (compared with the baseline)", "setting": "[5]; D58, p<0.05 vs placebo", "result": "13±6", "unit": "mmHg"}, {"measurement": "DBP change value", "setting": "[5]; D 58 vs baseline, Mean ± SD", "result": "−8 ± 5", "unit": "mmHg"}, {"measurement": "SBP change value", "setting": "[5]; D 58 vs baseline, Mean ± SD", "result": "−13 ± 6", "unit": "mmHg"}]}
